Where two headings read alike, the source gives them in different places.
Experiments:
[1] = mice, sc, up to a dose of 50 mg./kg.
Method: The acute toxicity of copper-free Bu-2231 A and B was determined in mice by a single subcutaneous injection. Groups of 3 mice were used for each dose level and the body weight was recorded for 16 days.

[2] = test system: Walker 256 carcinosarcoma in ascitic form; settings: for Effect MST %T/C / MST Days / Average Weight Change / Survivors Day 5: Exp. #5501; for MST Days: Bu-2231 A and B as copper-free formate salts; for Average Weight Change: recorded Day 5; for Survivors Day 5: toxicity evaluation; for fold greater potency (vs bleomycin): Table II, copper-free formate salts;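 for all read-outs here: female SD rats bearing intraperitoneally implanted ascites tumor cells, treated ip once a day for 8 days beginning on Day 1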
Lewis Lung carcinoma = settings: for Effect MST %T/C / MST Days / Survivors Day 5: Exp. #55; for Survivors Day 5: toxicity evaluation
[3] = test system: Bacillus subtilis PCI-219; test: Paper disc-agar diffusion method
[4] = 10 mcg/kg/day ip once daily for 8 days
[5] = 40 mcg/kg/day ip once daily for 8 days
[6] = 160 mcg/kg/day ip once daily for 8 days
[7] = 640 mcg/kg/day ip once daily for 8 days
[8] = 0.5 mg/kg/day ip once daily for 9 days
[9] = 1 mg/kg/day ip once daily for 9 days
[10] = 2 mg/kg/day ip once daily for 9 days
[11] = 4 mg/kg/day ip once daily for 9 days
[12] = 8 mg/kg/day ip once daily for 9 days

Row | SMILES | Effect MST %T/C [2, 4] [%] | MST Days [2, 4] [days] | Survivors Day 5 ([2]; 10 mcg/kg/day) | Effect MST %T/C [2, 5] [%] | MST Days [2, 5] [days] | Survivors Day 5 ([2]; 40 mcg/kg/day) | Effect MST %T/C [2, 6] [%] | MST Days [2, 6] [days] | Average Weight Change ([2]; 160 mcg/kg/day) | Survivors Day 5 ([2]; 160 mcg/kg/day) | Effect MST %T/C [2, 7] [%] | MST Days [2, 7] [days] | Survivors Day 5 ([2]; 640 mcg/kg/day) | fold greater potency (vs bleomycin) [2] [fold] | Effect MST %T/C (Lewis Lung carcinoma; [8]) [%] | MST Days (Lewis Lung carcinoma; [8]) [days] | Survivors Day 5 (Lewis Lung carcinoma; 0.5 mg/kg/day) | Effect MST %T/C (Lewis Lung carcinoma; [9]) [%] | MST Days (Lewis Lung carcinoma; [9]) [days] | Survivors Day 5 (Lewis Lung carcinoma; 1 mg/kg/day) | other results
1 | Cc1c(N)nc([C@H](CC(N)=O)NC[C@@H](N)C(N)=O)nc1C(=O)N[C@H](C(=O)N[C@H](C)[C@@H](O)CC(=O)N[C@@H](C(=O)NC(O[C@@H]1O[C@@H](C)[C@@H](N)[C@@H](O)[C@H]1O)C(O)c1nc(-c2nc(C(=O)NCCCNCCCCN)cs2)cs1)[C@@H](C)O)C(O[C@@H]1O[C@@H](CO)[C@H](O)[C@@H](O)[C@@H]1O[C@H]1O[C@H](CO)[C@@H](O)[C@@H](OC(N)=O)[C@@H]1O)c1cnc[nH]1 (stereo partly shown) [Bu-2231 B] | 114 | 8.0 | 6/6 | 157 | 11.0 | 6/6 | 186 | 13.0 | +36.5 g. | 6/6 | 186 | 13.0 | 6/6 | 4 | 102 | 22.5 | 6/6 | 134 | 29.5 | 6/6 | death in acute toxicity test [1]: No death occurred; Average Weight Change ([2]; 10 mcg/kg/day): +36.5 g.; Average Weight Change ([2]; 640 mcg/kg/day): +10.7 g.; Effect MST %T/C (Lewis Lung carcinoma; [10]): 136%; MST Days (Lewis Lung carcinoma; [10]): 30.0 days; Survivors Day 5 (Lewis Lung carcinoma; 2 mg/kg/day): 6/6; Effect MST %T/C (Lewis Lung carcinoma; [11]): 48%; MST Days (Lewis Lung carcinoma; [11]): 10.5 days; Survivors Day 5 (Lewis Lung carcinoma; 4 mg/kg/day): 6/6; Effect MST %T/C (Lewis Lung carcinoma; [12]): 27%; MST Days (Lewis Lung carcinoma; [12]): 6.0 days; Survivors Day 5 (Lewis Lung carcinoma; 8 mg/kg/day): 5/6; activity against Lewis Lung Carcinoma (T/C >= 125 criterion) (Lewis Lung carcinoma; doses of 2 and 1 mg./kg.): active; solubility (ethanol): slightly soluble; solubility (methanol): soluble; solubility (other organic solvents): practically insoluble; solubility (water): soluble; activity against B. subtilis PCI-219 [3]: active
2 | Cc1c(N)nc([C@H](CC(N)=O)NC[C@H](N)C(N)=O)nc1C(=O)N[C@H](C(=O)N[C@H](C)[C@@H](O)CC(=O)N[C@H](C(=O)NC(O[C@@H]1O[C@@H](C)[C@@H](N)[C@@H](O)[C@H]1O)C(O)c1nc(-c2nc(C(=O)NCCCC(N)CC(=O)NCCCNCCCCN)cs2)cs1)[C@@H](C)O)[C@H](O[C@@H]1O[C@@H](CO)[C@@H](O)[C@H](O)[C@@H]1O[C@H]1O[C@H](CO)[C@@H](O)[C@H](OC(N)=O)[C@@H]1O)c1c[nH]cn1 (stereo partly shown) [Bu-2231 A] | 129 | 9.0 | 6/6 | 157 | 11.0 | 6/6 | 179 | 12.5 | +28.8 g. | 6/6 | 250 | 17.5 | 6/6 | 4 | 120 | 26.5 | 6/6 | 123 | 27.0 | 6/6 | activity against Lewis Lung Carcinoma (T/C >= 125 criterion) (Lewis Lung carcinoma; 1 mg./kg.): just below an active level; Effect MST %T/C (Lewis Lung carcinoma; [10]): 114%; MST Days (Lewis Lung carcinoma; [10]): 25.0 days; Survivors Day 5 (Lewis Lung carcinoma; 2 mg/kg/day): 6/6; Effect MST %T/C (Lewis Lung carcinoma; [11]): 32%; MST Days (Lewis Lung carcinoma; [11]): 7.0 days; Survivors Day 5 (Lewis Lung carcinoma; 4 mg/kg/day): 6/6; Effect MST %T/C (Lewis Lung carcinoma; [12]): 27%; MST Days (Lewis Lung carcinoma; [12]): 6.0 days; Survivors Day 5 (Lewis Lung carcinoma; 8 mg/kg/day): 6/6; solubility (ethanol): slightly soluble; solubility (methanol): soluble; solubility (other organic solvents): practically insoluble; solubility (water): soluble; activity against B. subtilis PCI-219 [3]: active
